Experimental data reported in ChEMBL document CHEMBL1144322, “Structure-based design of potent and selective inhibitors of collagenase-3 (MMP-13)” (Bioorg Med Chem Lett, 2005).

Tests used:
[1] = target: T1, Collagenase 3 (Homo sapiens, UniProt P45452); test: Inhibition of matrix metalloprotease-13
[2] = target: Disintegrin and metalloproteinase domain-containing protein 17 (Homo sapiens, UniProt P78536); test: Inhibition of TNF-alpha converting enzyme (TACE, ADAM17)
[3] = target: Stromelysin-1 (Homo sapiens, UniProt P08254); test: Inhibition of matrix metalloprotease-3
[4] = target: T2, Interstitial collagenase (Homo sapiens, UniProt P03956); test: Inhibition of matrix metalloprotease-1
T2 sequence (P03956 whole entry): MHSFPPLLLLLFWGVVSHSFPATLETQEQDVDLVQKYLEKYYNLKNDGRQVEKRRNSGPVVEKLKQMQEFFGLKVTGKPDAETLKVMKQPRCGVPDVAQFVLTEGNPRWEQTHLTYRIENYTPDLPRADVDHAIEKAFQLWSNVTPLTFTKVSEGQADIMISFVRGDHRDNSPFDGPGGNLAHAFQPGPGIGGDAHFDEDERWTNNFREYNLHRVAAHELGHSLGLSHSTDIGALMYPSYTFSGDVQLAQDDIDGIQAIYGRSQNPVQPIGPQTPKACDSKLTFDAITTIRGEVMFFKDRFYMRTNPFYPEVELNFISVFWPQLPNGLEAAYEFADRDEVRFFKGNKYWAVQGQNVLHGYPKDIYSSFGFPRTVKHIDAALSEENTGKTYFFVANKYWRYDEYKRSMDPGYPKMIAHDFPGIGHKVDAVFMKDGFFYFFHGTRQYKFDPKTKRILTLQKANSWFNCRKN

[5] = target: Matrix metalloproteinase-9 (Homo sapiens, UniProt P14780); test: Inhibition of matrix metalloprotease-9
[6] = target: 72 kDa type IV collagenase (Homo sapiens, UniProt P08253); test: Inhibition of matrix metalloprotease-2
[7] = target: T1, Collagenase 3; test: Binding affinity for matrix metalloprotease 13

Sequence of Matrix metalloproteinase-9 (P14780 whole entry): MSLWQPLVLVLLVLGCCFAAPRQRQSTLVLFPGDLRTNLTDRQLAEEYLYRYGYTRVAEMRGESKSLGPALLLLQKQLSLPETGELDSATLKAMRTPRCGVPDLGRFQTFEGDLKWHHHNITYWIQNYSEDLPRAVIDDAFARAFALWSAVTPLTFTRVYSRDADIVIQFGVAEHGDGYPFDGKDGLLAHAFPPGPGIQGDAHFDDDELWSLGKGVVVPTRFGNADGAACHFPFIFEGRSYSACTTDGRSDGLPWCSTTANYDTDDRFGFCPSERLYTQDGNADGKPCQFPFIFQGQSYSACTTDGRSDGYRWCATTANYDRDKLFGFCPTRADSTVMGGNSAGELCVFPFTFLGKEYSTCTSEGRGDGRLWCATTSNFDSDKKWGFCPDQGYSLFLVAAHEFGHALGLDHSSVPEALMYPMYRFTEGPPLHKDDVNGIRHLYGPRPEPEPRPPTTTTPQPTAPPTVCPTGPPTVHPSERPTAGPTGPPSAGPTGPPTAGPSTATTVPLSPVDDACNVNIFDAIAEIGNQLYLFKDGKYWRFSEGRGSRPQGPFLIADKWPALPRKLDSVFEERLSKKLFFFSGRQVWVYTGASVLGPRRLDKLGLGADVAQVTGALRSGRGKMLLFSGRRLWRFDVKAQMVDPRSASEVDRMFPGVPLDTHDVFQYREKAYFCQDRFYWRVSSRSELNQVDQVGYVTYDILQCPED
Sequence of Stromelysin-1 (P08254 whole entry): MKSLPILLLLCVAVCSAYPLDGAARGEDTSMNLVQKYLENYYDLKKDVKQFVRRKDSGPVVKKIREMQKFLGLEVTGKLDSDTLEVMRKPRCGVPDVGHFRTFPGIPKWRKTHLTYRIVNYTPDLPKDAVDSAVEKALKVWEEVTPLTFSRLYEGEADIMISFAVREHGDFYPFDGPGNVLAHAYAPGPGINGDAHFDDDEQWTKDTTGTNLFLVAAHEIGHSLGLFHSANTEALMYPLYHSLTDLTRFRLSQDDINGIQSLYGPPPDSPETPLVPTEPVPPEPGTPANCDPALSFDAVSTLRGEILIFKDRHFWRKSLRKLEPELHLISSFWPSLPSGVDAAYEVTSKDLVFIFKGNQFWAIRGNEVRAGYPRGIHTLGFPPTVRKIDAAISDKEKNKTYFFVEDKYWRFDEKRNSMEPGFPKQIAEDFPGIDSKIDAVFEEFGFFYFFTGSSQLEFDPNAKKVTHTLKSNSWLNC
Sequence of Disintegrin and metalloproteinase domain-containing protein 17 (P78536 whole entry, the tested form may be a part): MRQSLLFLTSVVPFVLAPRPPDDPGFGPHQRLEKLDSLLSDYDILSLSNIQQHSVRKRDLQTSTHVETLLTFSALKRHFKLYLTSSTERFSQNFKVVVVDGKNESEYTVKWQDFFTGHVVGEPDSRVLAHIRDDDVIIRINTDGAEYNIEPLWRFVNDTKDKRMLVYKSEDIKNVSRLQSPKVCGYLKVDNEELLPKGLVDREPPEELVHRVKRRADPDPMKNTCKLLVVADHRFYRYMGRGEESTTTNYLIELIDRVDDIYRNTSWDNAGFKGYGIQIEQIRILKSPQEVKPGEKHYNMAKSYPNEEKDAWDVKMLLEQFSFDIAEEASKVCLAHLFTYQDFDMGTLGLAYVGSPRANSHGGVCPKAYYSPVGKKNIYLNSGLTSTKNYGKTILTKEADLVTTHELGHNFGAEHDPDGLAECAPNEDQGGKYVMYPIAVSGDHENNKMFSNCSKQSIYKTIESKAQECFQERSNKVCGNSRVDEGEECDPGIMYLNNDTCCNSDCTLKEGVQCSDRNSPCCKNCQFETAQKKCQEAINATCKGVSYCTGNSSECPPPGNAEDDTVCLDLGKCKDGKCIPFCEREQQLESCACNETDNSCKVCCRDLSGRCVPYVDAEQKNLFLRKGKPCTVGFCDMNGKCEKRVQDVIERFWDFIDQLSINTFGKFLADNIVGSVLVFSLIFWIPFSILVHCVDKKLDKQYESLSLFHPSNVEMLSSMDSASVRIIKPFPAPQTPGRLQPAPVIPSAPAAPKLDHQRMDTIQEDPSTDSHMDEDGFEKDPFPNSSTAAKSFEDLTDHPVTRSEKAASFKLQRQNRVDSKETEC
Sequence of 72 kDa type IV collagenase (P08253 whole entry): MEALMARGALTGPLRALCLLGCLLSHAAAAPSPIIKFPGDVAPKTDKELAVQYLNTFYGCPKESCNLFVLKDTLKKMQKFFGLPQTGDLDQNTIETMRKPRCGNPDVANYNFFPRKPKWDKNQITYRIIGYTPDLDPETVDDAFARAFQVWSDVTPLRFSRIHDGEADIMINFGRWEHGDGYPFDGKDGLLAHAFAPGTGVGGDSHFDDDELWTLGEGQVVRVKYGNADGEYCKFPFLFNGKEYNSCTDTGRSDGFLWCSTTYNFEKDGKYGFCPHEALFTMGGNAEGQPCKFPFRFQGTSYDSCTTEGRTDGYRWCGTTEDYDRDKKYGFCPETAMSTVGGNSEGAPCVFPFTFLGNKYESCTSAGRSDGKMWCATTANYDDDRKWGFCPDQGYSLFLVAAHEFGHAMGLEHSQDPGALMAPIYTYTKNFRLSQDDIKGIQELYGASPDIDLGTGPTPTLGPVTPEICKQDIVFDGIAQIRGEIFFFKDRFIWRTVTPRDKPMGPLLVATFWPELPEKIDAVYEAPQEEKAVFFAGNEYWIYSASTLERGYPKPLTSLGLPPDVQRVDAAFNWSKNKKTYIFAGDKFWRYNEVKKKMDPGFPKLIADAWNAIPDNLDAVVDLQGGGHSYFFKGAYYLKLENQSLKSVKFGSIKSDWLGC

For `O=C1NC(=O)C2(CCC(=O)N2c2ccc(Oc3ccc(Oc4ccccc4)cc3)cc2)C(=O)N1`, the Ki [1] was 0.33 nM, the Ki [2] was > 1000 nM and the Ki [3] was 110 nM. For the same compound, the Ki [4] was > 5000 nM, the Ki [5] was 1.9 nM and the Ki [6] was 1.8 nM.

`O=C1NC(=O)C2(CCC(=O)N2c2ccc(Oc3ccccc3)cc2)C(=O)N1` was tested, and the Ki [1] was 4.7 nM, the Ki [2] was > 1000 nM and the Ki [3] was 4500 nM. The Ki [4] was > 5000 nM, the Ki [5] was 4.7 nM and the Ki [6] was 1.6 nM.

`COc1cccc(Oc2ccc(N3C(=O)CCC34C(=O)NC(=O)NC4=O)cc2)c1` showed a Ki [1] of 1.9 nM.

Work on `O=C1NC(=O)C2(CCC(=O)N2c2ccc(Oc3ccc4c(c3)OCO4)cc2)C(=O)N1` yielded a Ki [1] of 5.8 nM.

With `O=C1NC(=O)C2(CCC(=O)N2c2ccc(Oc3ccc(Cl)cc3)cc2)C(=O)N1` the Ki [1] was 0.95 nM, the Ki [2] was > 1000 nM and the Ki [3] was 430 nM. The Ki [4] was > 5000 nM, the Ki [5] was 0.72 nM and the Ki [6] was 0.43 nM.

`O=C1NC(=O)C2(CCC(=O)N2c2ccc(OCc3ccccc3)cc2)C(=O)N1` gave a Ki [1] of 1100 nM.

In the case of `COc1ccncc1Oc1ccc(N2C(=O)CCC23C(=O)NC(=O)NC3=O)cc1`, the Ki [1] is reported as 25 nM.

For `O=C1NC(=O)C2(CCC(=O)N2c2ccc(Br)cc2)C(=O)N1`, the Ki [1] was 130 nM.

Compound `COc1ccccc1Oc1ccc(N2C(=O)CCC23C(=O)NC(=O)NC3=O)cc1` has a Ki [1] of 110 nM.

In the case of `CCC1CC(=O)N(c2ccc(Oc3ccccc3)cc2)C12C(=O)NC(=O)NC2=O` (stereo in doubt), the Ki [7] is reported as 0.54 nM, the Ki [2] is reported as > 1000 nM and the Ki [3] is reported as 92 nM. For the same compound, the Ki [4] was > 5000 nM, the Ki [5] was 0.87 nM and the Ki [6] was 0.4 nM.

In the case of `O=C1NC(=O)C2(CCC(=O)N2c2ccc(Oc3cccc(Cl)c3)cc2)C(=O)N1`, the Ki [1] is reported as 54 nM.

`CCC1CC(=O)N(c2ccc(Oc3ccccc3)cc2)C12C(=O)NC(=O)NC2=O` (single isomer, unassigned) was tested, and the Ki [7] was 4.1 nM, the Ki [2] was > 1000 nM and the Ki [3] was 1200 nM. The Ki [4] was > 5000 nM, the Ki [5] was 7.2 nM and the Ki [6] was 1.7 nM.

With `O=C1NC(=O)C2(CCC(=O)N2c2ccccc2)C(=O)N1` the Ki [1] was 2200 nM.

In the case of `O=C1NC(=O)C2(CCC(=O)N2c2ccc(Oc3ccc(C(=O)O)cc3)cc2)C(=O)N1`, the Ki [1] is reported as 2.7 nM, the Ki [2] is reported as > 1000 nM and the Ki [3] is reported as 3200 nM. The Ki [4] was > 5000 nM, the Ki [5] was 0.72 nM and the Ki [6] was 0.23 nM.

With `COC(=O)c1ccc(Oc2ccc(N3C(=O)CCC34C(=O)NC(=O)NC4=O)cc2)cc1` the Ki [1] was 4.2 nM, the Ki [2] was > 1000 nM and the Ki [3] was 1300 nM. The Ki [4] was > 5000 nM, the Ki [5] was 1.2 nM and the Ki [6] was 4.7 nM.

Compound `O=C1NC(=O)C2(CCC(=O)N2c2ccc(-c3ccccc3)cc2)C(=O)N1` has a Ki [1] of 934 nM.
